Measured values as given in PMC12583827, “Harnessing microbial-derived metabolites in the urinary tract to prevent infection induced catheter encrustation” (Nature Communications, 2025).
“Also recorded” adds a separate entry of the source. Counter-ions that a name gives are not always drawn. Like-named read-outs stand apart in the source and are kept apart here.

Tests used:
P. mirabilis urease [1] = system: P. mirabilis urease; set-up: method as in PMID 8494373; conditions: limited concentrations tested; cited from earlier work
[2] = system: Helicobacter pylori urease; set-up: method as in earlier work; conditions: cited from earlier work
[3] = target: T1, urease of P. mirabilis cell free extracts (Proteus mirabilis, UniProt P17086); assay type: biochemical
T1 construct: 20ul of cell-free extract were distributed into a 96-well plate in place of the whole cell bacterial suspensions; endogenous in cells; host or cells: Proteus mirabilis HI4320, urea-induced; freeze-thaw and sonication lysate, clarified supernatant
T1 sequence (P17086 whole entry): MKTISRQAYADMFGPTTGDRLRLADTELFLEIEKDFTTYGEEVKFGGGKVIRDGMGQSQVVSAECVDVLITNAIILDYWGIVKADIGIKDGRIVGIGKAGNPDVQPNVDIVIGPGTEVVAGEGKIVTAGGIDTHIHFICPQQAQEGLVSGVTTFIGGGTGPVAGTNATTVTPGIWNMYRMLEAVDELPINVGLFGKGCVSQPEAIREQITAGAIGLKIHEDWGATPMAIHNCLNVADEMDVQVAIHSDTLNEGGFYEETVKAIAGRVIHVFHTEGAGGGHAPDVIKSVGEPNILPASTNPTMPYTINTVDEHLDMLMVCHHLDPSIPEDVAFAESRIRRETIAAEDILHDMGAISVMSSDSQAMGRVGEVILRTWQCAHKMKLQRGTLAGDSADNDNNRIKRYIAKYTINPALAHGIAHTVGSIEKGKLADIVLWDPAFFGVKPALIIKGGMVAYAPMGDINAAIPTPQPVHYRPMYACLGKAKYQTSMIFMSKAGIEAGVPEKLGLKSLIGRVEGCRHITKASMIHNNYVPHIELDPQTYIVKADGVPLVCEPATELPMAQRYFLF
T1 sequence (P17088 whole entry, further chain): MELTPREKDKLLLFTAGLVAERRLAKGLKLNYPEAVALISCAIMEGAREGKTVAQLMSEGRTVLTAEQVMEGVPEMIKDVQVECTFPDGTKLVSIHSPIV
T1 sequence (P17087 whole entry, further chain): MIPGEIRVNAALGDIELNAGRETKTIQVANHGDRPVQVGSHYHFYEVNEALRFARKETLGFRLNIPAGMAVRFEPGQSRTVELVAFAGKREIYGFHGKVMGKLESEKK
Experimental: For the kinetic analysis of the urease reaction in the presence of urease dampening metabolites, urease activity assays were repeated with the P. mirabilis cell free extracts. Six different inhibitor concentrations that gave linear rates of reaction over a period of 120 min were tested for their effects on urease activity in the presence of urea concentrations ranging from 0 to 500 mM. Simple linear regression was performed on the absorbance (OD562) over 120 minutes for each condition and plotted as Initial velocity (slope) vs urea concentration. These initial hyperbolic plots were converted to double-reciprocal Lineweaver-Burke plots, and the pattern of inhibition inferred from the point of intersection of the lines. Finally, the Ki for a particular compound was determined by plotting the Km/Vmax ratio (the slope of the Lineweaver-Burke plots) of each line as a function of the inhibitor concentration as described by ref. [49]. The X-intercept corresponded to –Ki.

Jack Bean Urease (JBU) = target: T2, Jack Bean Urease (JBU) (Canavalia ensiformis, UniProt P07374); assay type: biochemical; conditions: 0.1 U JBU, 500 mM urea
T2 construct: purchased Sigma-Aldrich
T2 sequence (P07374 whole entry, looked up): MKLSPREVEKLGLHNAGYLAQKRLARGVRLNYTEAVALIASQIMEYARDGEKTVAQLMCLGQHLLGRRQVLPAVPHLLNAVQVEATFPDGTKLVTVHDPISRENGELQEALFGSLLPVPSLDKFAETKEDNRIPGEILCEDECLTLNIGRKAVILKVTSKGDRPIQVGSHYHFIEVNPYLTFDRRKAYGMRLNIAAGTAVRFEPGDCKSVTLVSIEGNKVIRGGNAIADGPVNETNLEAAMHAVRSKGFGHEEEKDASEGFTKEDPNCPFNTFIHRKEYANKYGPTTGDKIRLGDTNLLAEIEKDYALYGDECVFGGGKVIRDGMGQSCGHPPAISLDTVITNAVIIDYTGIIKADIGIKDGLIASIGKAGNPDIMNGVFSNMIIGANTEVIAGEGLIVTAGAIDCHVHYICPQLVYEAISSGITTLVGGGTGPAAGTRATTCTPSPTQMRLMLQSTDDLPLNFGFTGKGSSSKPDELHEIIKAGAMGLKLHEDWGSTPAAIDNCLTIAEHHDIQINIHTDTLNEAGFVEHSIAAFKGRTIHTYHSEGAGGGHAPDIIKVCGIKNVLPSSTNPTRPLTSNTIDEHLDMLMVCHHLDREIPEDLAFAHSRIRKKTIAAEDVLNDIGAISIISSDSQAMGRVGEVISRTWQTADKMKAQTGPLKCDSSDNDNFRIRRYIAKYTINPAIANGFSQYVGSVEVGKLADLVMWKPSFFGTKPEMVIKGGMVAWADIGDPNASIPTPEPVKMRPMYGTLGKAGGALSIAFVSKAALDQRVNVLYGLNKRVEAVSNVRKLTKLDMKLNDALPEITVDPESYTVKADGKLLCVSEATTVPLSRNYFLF
Experimental: To measure Jack Bean urease activity, the previously described assay was modified such that 0.1 U (1U liberates 1 µmol of ammonia from urea per minute) of JBU (Sigma-Aldrich urease from Canavalia ensiformis) were distributed into a 96-well plate in place of the bacterial suspensions. Acetohydroxamic acid (AHA), was used as a positive control and a vehicle control was used as a negative control. Percent of maximum urease activity was calculated using Area Under the Curve (AUC) relative to untreated bacteria of interest or untreated JBU. Urease activity measurement in MRSA was adapted from a recently published semi quantitative assay (See Supplementary materials for details)[48].
414 Supplementary Figure 13. Microbial metabolites dampen activity of purified Jack Bean
415 Urease (JBU). 0.1 U of JBU (1U liberates 1 µmol of ammonia from urea per minute) was
416 incubated at 37 °C with shaking in urease-dampening metabolites, 500mM urea, and phenol red.
417 A urea analogue, AHA, served as the positive control for inhibition of JBU. Absorbance
418 (OD562) was measured every 60 seconds for 90 minutes, and activity is expressed as percent of
419 maximum activity (% Max Activity) relative to untreated JBU. Graphs show mean±SD for 3
420 independent experiments with 3 technical replicates each. Data were analyzed by two tailed one
421 sample t-test to a hypothetical value of 100% activity. ***P<0.001, **P<0.002, *P<0.033.
(1 picture or pasted object on this page, not shown here)

P. mirabilis urease [4] = target: T3, P. mirabilis urease (Proteus mirabilis, UniProt P17086); assay type: cell-based; conditions: for Urease dampening activity: screen of candidate metabolites, highest concentration tested 20mM, * Trending but not statistically significant
T3 construct: it utilizes whole bacterial cells, rather than isolated enzyme preparations; endogenous in cells; host or cells: Proteus mirabilis HI4320, live whole cells
T3 sequence (P17086 whole entry): as the sequence (P17086 whole entry) above
T3 sequence (P17088 whole entry, further chain): as the sequence (P17088 whole entry, further chain) above
T3 sequence (P17087 whole entry, further chain): as the sequence (P17087 whole entry, further chain) above
Experimental: (§1) Urease activity was measured as described previously in triplicate with at least three biological replicates[21]. Briefly, bacteria were cultured for ~18 h in LB broth, concentrated to an OD600 of 4, washed once in saline, and diluted (1:10 for P. mirabilis and 1:50 for P. stuartii and M. morganii) into candidate dampening metabolites in potassium phosphate buffer or human urine pH7 and supplemented with 500 mM urea and 0.01% phenol red. Bacterial suspensions were distributed into a 96-well plate, incubated at 37 °C with double-orbital shaking in a Synergy H1 plate reader (BioTek), and absorbance (OD562) was measured every 60 seconds for 180 minutes. Isogenic urease mutants (Supplementary Data 1) served as negative controls for P. mirabilis and P. stuartii and a vehicle control served as a negative control for M. morganii.

[5] = Buffering capacity assay (NaOH titration, phenol red); assay type: physicochemical; conditions: high concentrations of metabolite in potassium phosphate buffer with phenol red
Experimental: Known concentrations of sodium hydroxide were added to each well of a 96 well plate in combination with candidate dampening metabolite of interest buffered 1:10 in potassium phosphate buffer pH7. 0.01% phenol red was added to each well, and absorbance (OD562) was measured in a Synergy H1 plate reader (BioTek).

P. mirabilis urease [6] = target: T3, P. mirabilis urease; assay type: cell-based; conditions: for Compound 1 %I alone: kphos
Experimental: To assess the synergistic effects of dampening metabolites when used in combination with each other, P. mirabilis urease activity was measured as described above. Between 4-6 different concentrations for each dampening metabolite were tested both alone and in combination (See Fig. 6a for example). […] To account for variability between experiments, all conditions tested were performed on a single 96-well plate with three technical replicates for each condition. To compare between biologic replicates, percent inhibition relative to untreated P. mirabilis was calculated for each condition using the average area under the curve over 120-180 minutes (so that the positive control activity curve saturated without any increase in the negative control curve).
Statistical analysis was conducted using a one sample T test of the combination index compared to a hypothetical value of 1 (additive effect). […] Therefore, combination indexes were calculated using a desired effect size less than 40% were indicated with an * in Fig. 6b and in Supplementary Data 5.

[7] = target: T4, urease of P. mirabilis HI4320 cell free extracts (Proteus mirabilis, UniProt P17086); assay type: biochemical
T4 construct: 20ul of cell-free extract were distributed into a 96-well plate in place of the whole cell bacterial suspensions; endogenous in cells; host or cells: Proteus mirabilis HI4320, urea-induced; freeze-thaw and sonication lysate, clarified supernatant
T4 sequence (P17088 whole entry): as the sequence (P17088 whole entry, further chain) above
T4 sequence (P17086 whole entry): as the sequence (P17086 whole entry) above
T4 sequence (P17087 whole entry, further chain): as the sequence (P17087 whole entry, further chain) above
Experimental: To measure urease activity of the cell free extracts of P. mirabilis, P. mirabilis was cultured for ~18 h in LB broth and then sub cultured until it reached mid-log growth phase (OD600 0.2-0.5). Cultures were spun down to pellet at 10,000 rcf for 10 minutes and resuspended in saline to a final OD600 of 1.0. Cultures were then diluted 1:10 in potassium phosphate buffer pH7 supplemented with 500 mM urea and incubated at 37 °C with shaking for 1 h to induce its urease enzyme production. The isogenic urease mutant Pm ureF::kan (Supplementary Data 1) served as negative control. Cultures then were spun down to pellet at 10,000 rcf for 10 minutes and resuspended in 2 mL saline. Cultures were subjected to four cycles of freezing in liquid nitrogen and thawing in a 37 °C water bath. Cultures were then probe sonicated (on ice) at 25% amplitude for 10 sec. Sonicated cultures were centrifuged at 18,900 Xg for 5 min and supernatants were transferred to a clean tube and stored on ice. To measure urease activity of cell free extracts, the previously described assay was modified such that 20ul of cell-free extract were distributed into a 96-well plate in place of the whole cell bacterial suspensions. Acetohydroxamic acid (AHA), was used as a positive control. Percent of maximum urease activity was calculated using Area Under the Curve (AUC) relative to untreated cell free extracts of P. mirabilis.

P. stuartii urease = assay: Urease activity assay, whole cell P. stuartii BE2467; assay type: cell-based, Providencia stuartii
Experimental: as §1

M. morganii urease = assay: Urease activity assay, whole cell M. morganii TA43; assay type: cell-based, Morganella morganii
Experimental: as §1

[8] = system: P. mirabilis urease operon (ureABC, ureEDF); assay: Real-time quantitative PCR of urease operon; assay type: cell-based, Proteus mirabilis; conditions: 15-minute incubation, 500 mM urea
Experimental: P. mirabilis was cultured for ~18 h in LB broth and then sub cultured until it reached mid-log growth phase (OD600 0.2-0.5). Cultures were spun down to pellet at 10,000 rcf for 10 minutes and resuspended in saline to a final OD600 of 1.0. Cultures were then diluted 1:10 into dampening metabolites buffered 1:10 in potassium phosphate buffer pH7 and supplemented with 500 mM urea. P. mirabilis in potassium phosphate buffer without urea served as a negative control. Cultures were incubated in potassium phosphate buffer with and without dampening metabolites at 37 °C with shaking for 15 minutes. RNA isolation, cDNA synthesis and RT qPCR were performed as described previously. […] A RNA integrity analysis using agarose gel electrophoresis on extracted RNA was performed for all samples to confirm no change in transcript stability (Supplementary Fig 16A). The data were analyzed according to the Relative Quantification (RQ) method by Pfaffl et al. 2001[54] (See Supplementary Information).
168 Real-time quantitative PCR analysis. The data were analyzed according to the Relative
169 Quantification (RQ) method by Pfaffl et al 2001 (56) in which P. mirabilis potassium phosphate
170 buffer without urea was considered as the ‘Control’ and P. mirabilis in potassium phosphate
171 buffer supplemented with 500mM urea with and without candidate dampening compounds were
172 the ‘Sample.’ The full equation is below.
(E )ΔCPtarget (control−sample)
174 Relative Quantification Ratio = target Equation 2
(Ereference)ΔCPreference (control−sample)
176 In this equation, E refers to the primer efficiency of the target gene (Etarget, urease operon
177 subunits) or the reference gene (Ereference, rpoA), and CP refers to the Cycle Point, or the cycle
178 number at which the signal exceeds the threshold. […]
183 for whole genome sequencing on the Illumina NextSeq2000 platform. Read trimming, and run
184 analytics were performed using Trimmomatic v0.39.0 (62). The processed reads were assembled
185 using spades v3.15.5 (63) wrapped in Unicycler v0.5.0 (64, 65). Read mapping was done using […]

UTI MRSA urease = UTI MRSA urease activity assay; assay type: cell-based, Staphylococcus aureus; conditions: whole cell, urease broth
Experimental: 190 Omega and visualization was carried out using ESPript 3.0 (69), enabling comparison across
191 different clinical isolates. Urease genes, including the full operon from ureA to ureR, were
192 identified and extracted from the prokka annotated genomes. The extracted protein sequences
193 were subjected to sequence alignment using Clustal Omega and visualization was carried out
194 using ESPript 3.0 [8], enabling comparison across different clinical isolates.
195 UTI MRSA urease activity assay. The UTI MRSA urease assay was adapted from a recently-
196 published semi quantitative assay to measure urease activity in bacterial species with low overall
197 activity under standard conditions (50). Dampening metabolites were directly dissolved in urease
198 broth (1 g tryptone (RPI; CAS No. 91079-40-2), 1 g D(+)-glucose (RPI; CAS No. 50-99-7), 2 g
199 potassium phosphate monobasic anhydrous (VWR; Lot: 20C1356567), 5 g sodium chloride
201 of MilliQ water, pH 5.5, sterilized via autoclaving). UTI MRSA strains from overnight cultures
202 were harvested by centrifugation for 5 minutes at 10,000 g, washed with 1 volume of 1X
203 Phosphate Buffered Saline (PBS), and resuspended in urease broth. Bacterial cultures were […]
205 measured at 415 nm, 560 nm, and 600 nm every 20 mins for 24 hours, shaking at 37°C using a
206 BioTek Synergy|H1 microtiter plate reader. Urease activity was calculated by dividing the OD […]

[9] = system: P. mirabilis catheter biofilms; assay: Antibiotic testing in the in vitro “bladder” model; assay type: cell-based, Proteus mirabilis; conditions: 1ug/mL ceftriaxone added at 24 h
Experimental: The glass “bladder” system assembly, inoculation and sample collection were performed as described above. At 24 h post inoculation glass “bladders” were supplied with media containing the same metabolite (or AUM only control) with or without 1 µg/mL ceftriaxone sodium salt hydrate (Cayman Chemical Company, Michigan, USA). Samples were then collected from the catheter port at 27, 30, 33, 36 and 48 h to monitor pH and bacterial CFUs. After 48 h, the catheters were carefully removed, sectioned and assessed for bacterial viability as detailed in Supplementary Methods.

urease operon (ureR) = system: urease operon (ureR); set-up: method as in PMID 31921010; conditions: cited from earlier work

Compound: COc1ccc2[nH]c([S+]([O-])Cc3ncc(C)c(OC)c3C)nc2c1 (stereo not shown) [Omeprazole]
- P. mirabilis urease activity (P. mirabilis urease [1]): did not inhibit
- Helicobacter pylori urease activity [2]: inhibit

Compound: O=C(O)[C@@H](O)Cc1cnc[nH]1 [L-imidazole lactate, L-imidazolelactic acid]
- change of estimated Km on addition of metabolite [3]: increase
- change of estimated Vmax on addition of metabolite [3]: decrease
- type of urease inhibition ([3]; Michaelis-Menten parameters, Lineweaver-Burke plot): mixed inhibitors
- JBU activity (Jack Bean Urease (JBU)): inhibited
- Urease dampening activity (P. mirabilis urease [4]): Yes
- buffering capacity: absorbance (OD562) across NaOH concentrations [5]: consistent reduction in absorbance compared to the control
- Compound 1 %I alone (P. mirabilis urease [6]; Compound 1 [] alone 25, assay date 2024 08 07): 36.6%
- Compound 1 %I alone (P. mirabilis urease [6]; Compound 1 [] alone 37.5, assay date 2024 08 09): 56.9%
- Compound 1 %I alone (P. mirabilis urease [6]; Compound 1 [] alone 50, assay date 2024 08 07): 58.1%
- urease activity of cell free P. mirabilis extracts [7]: at least partially inhibiting

Compound: O=C(O)C(=O)Cc1ccccc1 [phenylpyruvate, Sodium phenylpyruvate monohydrate]
- urease activity in P. stuartii (P. stuartii urease): no activity
- JBU activity (Jack Bean Urease (JBU)): did not inhibit; also recorded: no activity
- effect on P. mirabilis urease activity (whole cell) (P. mirabilis urease [4]; potassium phosphate buffer, dose response): reproducibly decreased; also recorded: only modest activity
- Urease dampening activity (P. mirabilis urease [4]): Yes
- urease activity in M. morganii (M. morganii urease): no activity
- ureE and ureF transcript levels [8]: modestly increased
- urease activity in MRSA (UTI MRSA urease): most potent urease inhibition
- concentrations required to achieve a significant combination index (P. mirabilis urease [6]): > 50 mM

Compound: CO/N=C(\C(=O)N[C@@H]1C(=O)N2C(C(=O)O)=C(CSc3nc(=O)c(=O)[nH]n3C)CS[C@H]12)c1csc(N)n1 [ceftriaxone, ceftriaxone sodium salt hydrate]
- AUM pH compared to the control “bladder” [9]: no impact on pH
- reduction in CFU/mL by the end of the experiment ([9]; effluent, 48 h): 3 log

Compound: Cc1c(OCC(F)(F)F)ccnc1C[S+]([O-])c1nc2ccccc2[nH]1 (stereo not shown) [lansoprazole]
- P. mirabilis urease activity (P. mirabilis urease [1]): did not inhibit
- Helicobacter pylori urease activity [2]: inhibit

Compound: 2-Hydroxy-4-methoxybenzaldehyde
- urease operon expression (urease operon (ureR)): reduce urease operon expression
